Source: US20240391889A1, “ANTIMICROBIAL COMPOUNDS AND THE METHODS OF USE” (priority 2021, published 2024)
Converted amounts (≈) assume the structure as drawn. Numbered stars: 1 amine (or outer) side, 2 acyl side, 3 side chain; on linkers, the order of the positions; unused ones are H or OH. Square brackets hold non-standard residues; d marks the D form. Peptide text beside a SMILES is read from it. N(tridecyl)Gly = CCCCCCCCCCCCCNCC(=O)O; X1 = CC(c1ccccc1)N(CC(=O)[*:2])[*:1]; NFurfurylGly = O=C(O)CNCc1ccco1; Gly(N(CH2)3NH2) = NCCCNCC(=O)O; Nphe = O=C(O)CNCc1ccccc1; NPrGly = CCCNCC(=O)O; Nlys = NCCCCNCC(=O)O

What was measured:
C. tropicalis = format: cell-based, Candida tropicalis
C. glabrata = format: cell-based, Candida glabrata
Mycobacterium smegmatis = assay: MIC assay, M. smegmatis (72 h); format: cell-based
Method: (§1) The minimum inhibitory concentration (MIC) of peptoids against the ESKAPE bacteria (Enterococcus faecium ATCC 6569; Staphylococcus aureus ATCC 29213; Klebsiella pneumoniae ATCC 13883; Acinetobacter baumanii ATCC 19606; Pseudomonas aeruginosa ATCC 25619; Enterococcus faecalis ATCC 29212; and Escherichia coli ATCC 25922) was determined following CLSI guidelines (CLSI. Methods for Dilution Antimicrobial Susceptibility Tests for Bacteria That Grow Aerobically, 11th Edition. Clinical and Laboratory Standards Institute, 2018). The MIC against Mycobacterium smegmatis was also determined following CLSI guidelines (Woods, G. L. et al. Susceptibility Testing of Mycobacteria, Nocardiae, and Other Aerobic Actinomycetes, 2nd edition. (2011)). Colonies picked from streaked tryptic soy agar plates were added to tryptic soy broth (TSB) to achieve a turbidity of OD600=0.08-0.15. Inoculant was diluted 1:200 into cation adjust Mueller Hinton Broth (CAMHB) and 90 μL was plated into each well of a 96 well black-wall plate. […] Following incubation for the ESKAPE bacteria, PRESTO BLUE (10 μL) was added to each well and incubated at 37° C. for one hour before measuring fluorescence on a SPECTRAMAX M5 plate reader (Ex. 555 nm; Em. 585 nm). Following incubation for M. smegmatis, wells were scored following CLSI guidelines to determine MIC. […]

C. albicans ATCC 64124 = format: cell-based, Candida albicans; conditions: resistant to amphotericin B, fluconazole, caspofungin, flucytosine
Excerpt: (§2) This screening led to the discovery of RMG9-11 (FIG. 2C). The minimum inhibitory concentration (MIC) of resynthesized RMG9-11 was initially determined against C. albicans, C. neoformans, and the ESKAPE bacteria via CSLI guidelines (CLSI. Methods for Dilution Antimicrobial Susceptibility Tests for Bacteria That Grow Aerobically, 11th Edition. Clinical and Laboratory Standards Institute (2018); CLSI. Reference method for broth dilution antifungal susceptibility testing of yeasts; approved standard-third edition; CLSI document M27-A3. Clinical and Laboratory Standards Institute (2008)). […] C. albicans clinical isolates include a reference strain (M1), fluconazole susceptible strains (M4 and M6), and fluconazole resistant strains (M2, M3, M5, and M7). ATCC 64124 is multidrug resistant C. albicans strain that is resistant to amphotericin B, fluconazole, caspofungin, and flucytosine. All MICs were performed under CSLI guidelines in triplicate on at least three different days.
(§3) The minimum inhibitory concentration (MIC) of peptoids against fungal pathogens C. albicans and C. neoformans was determined following CLSI guidelines (Reference method for broth dilution antifungal susceptibility testing of yeasts; approved standard-third edition; CLSI document M27-A3.” CLSI. 2008.). Colonies were transferred from a streaked YPD plate to 0.85% saline to reach an OD530 between 0.18 and 0.25. This inoculant was diluted 1:100 into RPMI-MOPS and then further diluted 1:20 into RPMI-MOPS. 198 μL of inoculant was seeded into each well of a 96 well black-walled plate. 2-fold serial dilutions of 100× peptoid solutions were prepared in water and 2 μL of peptoid were added to each well in triplicate. […] MIC was defined as the lowest concentration of compound preventing fungal growth. This assay was repeated 3 times on separate days with each compound.

C. albicans M1 = format: cell-based, Candida albicans; conditions: reference strain
Excerpt: as §2, §3

C. albicans M2 = format: cell-based, Candida albicans; conditions: fluconazole resistant strain
Excerpt: as §2, §3

C. albicans M3 = format: cell-based, Candida albicans; conditions: fluconazole resistant strain
Excerpt: as §2, §3

C. albicans M4 = format: cell-based, Candida albicans; conditions: fluconazole susceptible strain
Excerpt: as §2, §3

C. albicans M5 = format: cell-based, Candida albicans; conditions: fluconazole resistant strain
Excerpt: as §2, §3

C. albicans M6 = format: cell-based, Candida albicans; conditions: fluconazole susceptible strain
Excerpt: as §2, §3

C. albicans M7 = format: cell-based, Candida albicans; conditions: fluconazole resistant strain
Excerpt: as §2, §3

C. albicans = format: cell-based, Candida albicans; conditions: planktonic, 24 h, RPMI-MOPS
Excerpt: as §2, §3

[1] = tested on: fluconazole resistant and susceptible strains of C. albicans; format: cell-based, Candida albicans; conditions: regardless of fluconazole susceptibility
Excerpt: as §2, §3

[2] = tested on: Gram-negative and Gram-positive bacteria; format: cell-based; conditions: with the exception of K. pnuemoniae
Excerpt: The ESKAPE bacteria consist of the most common multidrug resistant and nosocomial bacterial pathogens including both Gram-positive and Gram-negative species (Pendleton et al., Expert Rev. Anti-infect. Ther. 11, 297-308 (2013)). […] The broad-spectrum antimicrobial activity of RMG9-11 naturally lead to concerns about mammalian cytotoxicity, especially since the membranes of fungi and mammals have similar phospholipid compositions.
as §1, with “(2011)).” for “(2011)). Colonies picked from streaked tryptic soy agar plates were added to tryptic soy broth (TSB) to achieve a turbidity of OD600=0.08-0.15. Inoculant was diluted 1:200 into cation adjust Mueller Hinton Broth (CAMHB) and 90 μL was plated into each well of a 96 well black-wall plate.”, “nm).” for “nm). Following incubation for M. smegmatis, wells were scored following CLSI guidelines to determine MIC.”

[3] = tested on: single donor human red blood cells (hRBC)

CCCCCCCCCCCCCNCC(=O)N(CCC)CC(=O)N(CC(=O)N(CCCCN)CC(=O)N(CC(=O)N(CC(=O)N(CCCN)CC(N)=O)Cc1ccccc1)Cc1ccco1)C(C)c1ccccc1 (stereo not drawn) [RMG9-11] (H-[N(tridecyl)Gly][NPrGly][X1][Nlys][NFurfurylGly][Nphe][Gly(N(CH2)3NH2)]-NH2)
MIC C. tropicalis (C. tropicalis): 3.13 µg/mL (≈ 3 µM) | MIC C. glabrata (C. glabrata): 6.25 µg/mL (≈ 5.99 µM) | MIC M. smegmatis (Mycobacterium smegmatis): 6.25 µg/mL (≈ 5.99 µM) | MIC C. albicans ATCC 64124 (C. albicans ATCC 64124): 6.25 µg/mL (≈ 5.99 µM) | MIC C. albicans M1 (C. albicans M1): 6.25 µg/mL (≈ 5.99 µM) | MIC C. albicans M2 (C. albicans M2): 12.5 µg/mL (≈ 12 µM) | MIC C. albicans M3 (C. albicans M3): 12.5 µg/mL (≈ 12 µM) | MIC C. albicans M4 (C. albicans M4): 12.5 µg/mL (≈ 12 µM) | MIC C. albicans M5 (C. albicans M5): 12.5 µg/mL (≈ 12 µM) | MIC C. albicans M6 (C. albicans M6): 6.25 µg/mL (≈ 5.99 µM) | MIC C. albicans M7 (C. albicans M7): 6.25 µg/mL (≈ 5.99 µM) | MIC C. albicans (C. albicans): 6.25 µg/mL (≈ 5.99 µM) | MICs against fluconazole resistant and susceptible strains of C. albicans [1]: 6.25 to 12.5 µg/mL | activity against Gram-negative and Gram-positive bacteria (MIC) [2]: 3.13 to 12.5 µg/mL | HC10 hRBC [3]: 29 µg/mL
